Test results published in US20210283110A1, “COMPOUND FOR USE IN THE TREATMENT OF A DISEASE CHARACTERIZED BY DYSREGULATED MUCUS PRODUCTION AND/OR SECRETION” (UNIVERSITÄT REGENSBURG, priority 2018, published 2021).
“Also recorded” adds a separate entry of the source.

Legend:
TMEM16A or TMEM16F = test: Expression of TMEM16A / TMEM16F after niclosamide; format: cell-based
[1] = test system: freshly isolated crypt cells; test: ATP-induced Ca2+ rise in freshly isolated crypt cells (Fura-2); format: cell-based, mouse; settings: low concentrations of niclosamide
Procedure: All methods were carried out as specified in the previous examples. For the measurements of Ca^2+, crypts were isolated from inverted proximal mouse colons using Ca^2+-free Ringer solution with 1 mM DTT and 1 μM indomethacin for 20 min at 37° C. Crypts were loaded with 10 μM Fura2-AM (Biotum, USA) and 1 mg/ml BSA (Sigma-Aldrich) in ringer solution for 1 h at RT. Intracellular Ca^2+ was measured by loading crypts with […] Fura-2/AM and 0.02% Pluronic F-127 (Life Technologies, Germany) in ringer solution for 1 h at room temperature. Fluorescence was detected in cells perfused with Ringer's solution at 37° C. using an inverted microscope (Axiovert S100, Zeiss, Germany) and a high-speed polychromator system (VisiChrome, Germany). Fura-2 was excited at 340/380 nm, and emission was recorded between 470 and 550 nm using a CoolSnap camera (CoolSnap HQ, Visitron).
It was examined whether niclosamide inhibits intestinal mucus secretion. To this end, niclosamide was added to the perfusate. […] The present inventors detected reduced Ca^2+ increase upon ATP-stimulation of freshly isolated crypt cells from Vil1-Cre TMEM16F^flox/flox mice. […] Increase in FM4-64 fluorescence in the plasma membrane is a marker for membrane exocytosis. The present inventors detected that ATP-stimulation (but not cholinergic stimulation) of HEK293 cells expressing TMEM16F induced FM4-64 fluorescence, i.e. exocytosis.

TMEM16A = target: T1, TMEM16A (Homo sapiens, UniProt Q5XXA6); test: Whole cell currents in HEK293 cells expressing TMEM16A (patch clamp); format: cell-based; set-up: expressed in transfected cells; host or cells: HEK293 cells; settings: overexpressing HEK293 cells; UTP 100 μM
T1 sequence (Q5XXA6 1-986): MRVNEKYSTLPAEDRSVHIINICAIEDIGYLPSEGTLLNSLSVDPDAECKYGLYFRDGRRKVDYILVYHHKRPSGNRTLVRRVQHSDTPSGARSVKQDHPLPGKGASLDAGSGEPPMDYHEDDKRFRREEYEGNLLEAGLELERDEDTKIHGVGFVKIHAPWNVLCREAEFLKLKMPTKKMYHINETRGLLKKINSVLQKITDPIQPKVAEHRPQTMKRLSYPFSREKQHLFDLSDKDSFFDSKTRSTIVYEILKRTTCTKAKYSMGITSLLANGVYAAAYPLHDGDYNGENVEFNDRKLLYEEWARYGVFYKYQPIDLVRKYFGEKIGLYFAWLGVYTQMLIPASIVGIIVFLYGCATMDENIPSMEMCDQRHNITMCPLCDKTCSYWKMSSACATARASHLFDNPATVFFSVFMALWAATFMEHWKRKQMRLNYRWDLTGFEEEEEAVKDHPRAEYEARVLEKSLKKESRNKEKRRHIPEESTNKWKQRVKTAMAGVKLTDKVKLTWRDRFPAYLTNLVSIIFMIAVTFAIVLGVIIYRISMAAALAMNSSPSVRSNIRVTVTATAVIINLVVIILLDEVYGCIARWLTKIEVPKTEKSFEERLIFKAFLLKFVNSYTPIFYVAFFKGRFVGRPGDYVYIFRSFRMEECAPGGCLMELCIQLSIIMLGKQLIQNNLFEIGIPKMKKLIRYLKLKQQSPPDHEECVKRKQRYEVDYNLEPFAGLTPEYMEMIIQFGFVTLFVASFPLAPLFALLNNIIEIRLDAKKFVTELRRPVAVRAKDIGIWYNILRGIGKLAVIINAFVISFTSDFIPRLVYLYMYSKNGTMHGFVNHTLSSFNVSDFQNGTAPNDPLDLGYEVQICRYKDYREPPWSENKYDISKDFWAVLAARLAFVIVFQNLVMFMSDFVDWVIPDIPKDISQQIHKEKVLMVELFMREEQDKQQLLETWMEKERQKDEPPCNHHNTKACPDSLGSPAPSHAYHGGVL
Procedure: FIG. 14: The TMEM16-inhibitor niflumic acid attenuates inflammatory airway disease. • A,B) OVA-sensitization induced pronounced goblet cell metaplasia as indicated by alcian blue positivity. Exposure to carbachol (CCH, 25 mg/ml, nebulizer) induced release of mucus and airway […]. Bars indicate […]. […] Mean±SEM; *significant inhibition by NFA (paired ttest). # significant difference when compared to OVA (unpaired t-test). (n) number of airways analysed or number of cells examined.
FIG. 15: Inhibition of TMEM16A and TMEM16F by niclosamide. • A) TMEM16A whole cell currents in overexpressing HEK293 cells. […]
OVA-induced allergic airway inflammation in mice caused pronounced airway goblet cell metaplasia. […] The two main TMEM16 paralogs expressed in airway epithelial and smooth muscle cells, TMEM16A and TMEM16F, were expressed in HEK293 cells and the whole cell currents upon activation by the Ca^2+ ionophore ionomycin (Iono) were measured. […]
Similar to TMEM16A, also overexpressed TMEM16F was inhibited by niclosamide (FIG. 15D). […] TMEM16A was activated by ionomycin and TMEM16A currents were measured as iodide quenching.

O=C(Nc1ccc([N+](=O)[O-])cc1Cl)c1cc(Cl)ccc1O [niclosamide, 5-chloro-N-(2-chloro-4-nitrophenyl)-2-hydroxybenzamide]
expression of either TMEM16A or TMEM16F (TMEM16A or TMEM16F): did not change | ATP-induced Ca2+ rise [1]: potently inhibited | TMEM16A outward currents activated by purinergic stimulation (TMEM16A): inhibitory effect; also recorded: Concentration-dependent inhibition
